Counter-ions that a name gives are not always drawn. Like-named read-outs stand apart in the source and are kept apart here. Each block holds one molecule with its values, some of them ahead of it.
Columns and labels:
Format in all cases: physicochemical
[1] = Solubility of polymorphs (aqueous intrinsic / aqueous equilibrium solubility)
[2] = Hygroscopicity / water uptake and loss at relative humidity (VTI)
[3] = Thermal water loss and degradation (TGA/DTA, DSC, fusion microscopy)
[4] = Ambient polymorph screen with wet solvents (slurry conversion, relative form stability); settings: for Polymorph Isolated: starting Form I, ambient

- Aqueous Equilibrium ([1]; aqueous): > 1155 mg/mL
- solubility in wet THF (in words) ([1]; slurried in THF with >5% H2 O): solubility increases dramatically
- solubility ([1]; water, aqueous, intrinsic, read-out: Aqueous Intrinsic Solubility): > 648 mg/mL
- hygroscopicity (in words) [2]: nonhydroscopic
- VTI (% H2 O absorbed) [2]: 0.8 % wt.
- DSC degradation temperature ([3]; DSC): ~ 230 °C
- DSC water loss (in words) ([3]; DSC): undetected
- TGA/DTA degradation temperature [3]: 194 °C
- Fusion Microscopy water loss (in words) ([3]; fusion microscopy): Slow water loss
- conversion to Form II in slurry ([4]; THF with about 3% to 5% H2 O): the conversion is to Form II
- conversion to Form II in slurry ([4]; THF with less than 2% H2 O): no conversion to Form II
- Polymorph Isolated ([4]; Acetone/5% H2 O, slurry): Form II
- Polymorph Isolated ([4]; Acetonitrile/5% H2 O, slurry): Form I
- Polymorph Isolated ([4]; Ethyl Acetate/3.5% H2 O, slurry): Form II
- Polymorph Isolated ([4]; H2 O, solutions seeded with Form II): Form II
- Polymorph Isolated ([4]; IPO/5% H2 O, slurry): Form I
- Polymorph Isolated ([4]; Tetrahydrofuran/5% H2 O, slurry): Form II
Structure (SMILES): COc1ccc(C(C)C)cc1CN[C@H]1C2CCN(CC2)[C@H]1C(c1ccccc1)c1ccccc1 [Form I, (2-Benzhydryl-1-azo-bicyclo 2,2,2oct-3-yl)-(5-isoproyl-2-methoxybenzyl)-amine]

- Aqueous Equilibrium ([1]; aqueous): 395 mg/mL
- Aqueous Intrinsic Solubility ([1]; aqueous, intrinsic): < 329 mg/mL
- solubility ([1]; medium not stated): 390-400 milligrams per milliliter
- VTI (% H2 O absorbed) [2]: 0.4 % wt.
- TGA/DTA degradation temperature [3]: 178 °C
- Fusion Microscopy water loss (in words) ([3]; fusion microscopy): Sharp water loss
- Fusion Microscopy water loss temperature ([3]; fusion microscopy): ~ 100 °C
Structure (SMILES): COc1ccc(C(C)C)cc1CN[C@H]1C2CCN(CC2)[C@H]1C(c1ccccc1)c1ccccc1 [Form II, (2-Benzhydryl-1-azo-bicyclo 2,2,2oct-3-yl)-(5-isoproyl-2-methoxybenzyl)-amine]
- relative stability of the polymorph ([4]; compared with Form I): lower energy, more stable form than Form I

- hygroscopicity (in words) [2]: hygroscopic
- hygroscopicity (humidity at which hygroscopic and forms dihydrates) ([2]; about 52% humidity or greater): ≥ 52%
Structure (SMILES): COc1ccc(C(C)C)cc1CN[C@H]1C2CCN(CC2)[C@H]1C(c1ccccc1)c1ccccc1 [anhydrous dihydrochloride, anhydrous dihydrochloride of (2-Benzhydryl-1-azo-bicyclo 2,2,2oct-3-yl)-(5-isoproyl-2-methoxybenzyl)-amine]
